In paper PMC8165160, “Substrate Specificities and Inhibition Pattern of the Solute Carrier Family 10 Members NTCP, ASBT and SOAT” (Frontiers in Molecular Biosciences, 2021):
pIC50: −log10 of the molar value. Where two headings read alike, the source gives them in different places.

Legend:
ASBT = target: T1, ASBT (Homo sapiens, UniProt Q12908); test: Substrate screening: sodium-dependent uptake of radiolabeled compounds in ASBT-HEK293 cells; type: cell-based; details: radiolabeled bile acids 1 µM, 30 min, ASBT-HEK293, vs sodium-free control
T1 construct: The full-length open reading frames of NTCP, ASBT, and SOAT were cloned; expressed in transfected cells; host or cells: Flp-In T-REX HEK293 (ASBT-HEK293), tetracycline-induced
T1 sequence (Q12908 1-348): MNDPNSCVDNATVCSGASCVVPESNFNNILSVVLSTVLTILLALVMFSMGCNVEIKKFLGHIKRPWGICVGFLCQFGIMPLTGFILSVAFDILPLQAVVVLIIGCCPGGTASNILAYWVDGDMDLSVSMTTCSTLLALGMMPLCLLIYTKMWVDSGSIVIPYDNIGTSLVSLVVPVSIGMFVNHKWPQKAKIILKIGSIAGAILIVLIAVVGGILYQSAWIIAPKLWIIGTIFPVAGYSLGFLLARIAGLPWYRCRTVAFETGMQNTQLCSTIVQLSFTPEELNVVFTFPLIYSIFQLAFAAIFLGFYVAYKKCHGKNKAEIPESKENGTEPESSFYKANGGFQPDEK
Method: (§1) Stably SLC10 transporter transfected NTCP-HEK293, ASBT-HEK293, SOAT-HEK293 cells and the HEK293-FlpIn maternal cell line were seeded on 24-well plates (if not stated otherwise for individual assays). Well plates were coated with poly-D-lysine prior to seeding of 125,000 cells per well. Cells were grown with 1 ml of standard medium per well with or without tetracycline ([…]) for 72 h to induce carrier expression before respective assays were started. HEK293-FlpIn cells were cultivated with standard medium and served as control.
(§2) Uptake experiments were initiated by replacing the preincubation buffer by 500 μL transport buffer containing the radiolabeled test compound and were performed at 37°C. Transport was terminated by removing the transport buffer and washing five-times with ice-cold PBS. Cell monolayers were lysed in 1 N NaOH with 0.1% SDS and the cell-associated radioactivity was determined by liquid scintillation counting.
(§3) FIGURE 1 Comparative substrate screening for bile acids and sulfated steroids in NTCP-, ASBT-, and SOAT-HEK293 cells. Transport assays were performed with the indicated substrates in NTCP-HEK293, ABST-HEK293, SOAT-HEK293, and HEK293-FlpIn cells. Cells were washed and equilibrated with Na^+-containing transport buffer (filled bars) or with Na^+-free transport buffer (open bars) at 37°C. For uptake, cells were incubated with radiolabeled steroid compounds at a final concentration of 200 nM in Na^+-containing or Na^+-free transport buffer for 10 min. Radiolabeled bile acids were used at 1 µM concentrations and transport was analyzed over 30 min. HEK293-FlpIn cells served as additional controls. After the indicated time intervals, cells were washed with ice-cold PBS, lysed and subjected to liquid scintillation counting. […] 3-OH, trihydroxylated BAs; 2-OH, dihydroxylated BAs; 1-OH, monohydroxylated BAs.

NTCP [1] = target: T2, NTCP (Homo sapiens, UniProt Q14973); test: Substrate screening: sodium-dependent uptake of radiolabeled compounds in NTCP-HEK293 cells; type: cell-based; parameters: The full-length open reading frames of NTCP, ASBT, and SOAT were cloned; expressed in transfected cells; host or cells: Flp-In T-REX HEK293 (NTCP-HEK293), tetracycline-induced; details: NTCP-HEK293, vs sodium-free control
T2 sequence (Q14973 1-349): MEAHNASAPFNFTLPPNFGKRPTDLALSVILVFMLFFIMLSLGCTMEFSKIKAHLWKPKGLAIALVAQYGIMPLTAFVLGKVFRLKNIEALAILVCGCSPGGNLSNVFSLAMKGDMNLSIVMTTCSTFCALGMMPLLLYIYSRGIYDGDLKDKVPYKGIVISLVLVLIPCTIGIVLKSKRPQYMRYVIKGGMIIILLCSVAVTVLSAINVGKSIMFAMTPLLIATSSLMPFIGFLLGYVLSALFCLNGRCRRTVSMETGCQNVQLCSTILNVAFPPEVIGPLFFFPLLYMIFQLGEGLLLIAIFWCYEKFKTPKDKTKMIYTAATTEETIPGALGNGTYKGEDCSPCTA
Method: as §1, §2, §3

NTCP [2] = target: T2, NTCP; test: Transport inhibition in NTCP-HEK293 cells; details: NTCP-HEK293
[3] = radiolabeled bile acids 1 µM, 30 min

Row | Compound | Transport activity grading ASBT (mean uptake) (ASBT) | Transport activity grading NTCP (mean uptake) (NTCP [1]; [3]) | further results
1 | C[C@H](CCC(=O)O)[C@H]1CC[C@H]2[C@@H]3[C@H](O)C[C@@H]4C[C@H](O)CC[C@]4(C)[C@H]3CC[C@]12C [Chenodeoxycholic acid] | + (Mean uptake of bile acids “+” for values below 500) | + (Mean uptake of bile acids “+” for values below 500) | 
2 | C[C@H](CCC(=O)O)[C@H]1CC[C@H]2[C@@H]3[C@H](O)C[C@@H]4C[C@H](O)CC[C@]4(C)[C@H]3C[C@H](O)[C@]12C [Cholic acid] | + (Mean uptake of bile acids “+” for values below 500) | ++ (“++” for values between 500 and 1000) | 
3 | C[C@H](CCC(=O)O)[C@H]1CC[C@H]2[C@@H]3CC[C@@H]4C[C@H](O)CC[C@]4(C)[C@H]3C[C@H](O)[C@]12C [Deoxycholic acid] | + (Mean uptake of bile acids “+” for values below 500) | + (Mean uptake of bile acids “+” for values below 500) | 
4 | C[C@]12CC[C@@H]3c4ccc(O[C@@H]5O[C@H](C(=O)O)[C@@H](O)[C@H](O)[C@H]5O)cc4CC[C@H]3[C@@H]1CCC2=O [Estrone-3β-D-glucuronide] |  |  | Transport activity grading NTCP (mean uptake) (NTCP [1]; radiolabeled steroid compounds 200 nM, 10 min): + (Mean uptake “+” for values below 10)
5 | CC(CCC(=O)NCC(=O)O)C1CCC2C3C(O)CC4CC(O)CCC4(C)C3CCC12C (stereo not shown) [Glycochenodeoxycholic acid] | ++ (“++” for values between 500 and 1000) | +++ (“+++” for values above 1000 pmol/mg protein/30 min) | 
6 | C[C@H](CCC(=O)NCC(=O)O)[C@H]1CC[C@H]2[C@@H]3[C@H](O)C[C@@H]4C[C@H](O)CC[C@]4(C)[C@H]3C[C@H](O)[C@]12C [Glycocholic acid] | ++ (“++” for values between 500 and 1000) | +++ (“+++” for values above 1000 pmol/mg protein/30 min) | 
7 | CC(CCC(=O)NCC(=O)O)C1CCC2C3CCC4CC(O)CCC4(C)C3CC(O)C12C (stereo not shown) [Glycodeoxycholic acid] | ++ (“++” for values between 500 and 1000) | +++ (“+++” for values above 1000 pmol/mg protein/30 min) | 
8 | C[C@H](CCC(=O)NCC(=O)O)[C@H]1CC[C@H]2[C@@H]3[C@@H](O)C[C@@H]4C[C@H](O)CC[C@]4(C)[C@H]3CC[C@]12C [Glycoursodeoxycholic acid] | ++ (“++” for values between 500 and 1000) | +++ (“+++” for values above 1000 pmol/mg protein/30 min) | 
9 | C[C@H](CCC(=O)NCCS(=O)(=O)O)[C@H]1CC[C@H]2[C@@H]3[C@H](O)C[C@@H]4C[C@H](O)CC[C@]4(C)[C@H]3CC[C@]12C [Taurochenodeoxycholic acid] | ++ (“++” for values between 500 and 1000) | +++ (“+++” for values above 1000 pmol/mg protein/30 min) | 
10 | C[C@H](CCC(=O)NCCS(=O)(=O)O)[C@H]1CC[C@H]2[C@@H]3CC[C@@H]4C[C@H](O)CC[C@]4(C)[C@H]3C[C@H](O)[C@]12C [Taurodeoxycholic acid] | ++ (“++” for values between 500 and 1000) | +++ (“+++” for values above 1000 pmol/mg protein/30 min) | 
11 | C[C@H](CCC(=O)NCCS(=O)(=O)O)[C@H]1CC[C@H]2[C@@H]3[C@@H](O)C[C@@H]4C[C@H](O)CC[C@]4(C)[C@H]3CC[C@]12C [Tauroursodeoxycholic acid] | ++ (“++” for values between 500 and 1000) | +++ (“+++” for values above 1000 pmol/mg protein/30 min) | 
12 | C[C@H](CCC(=O)O)[C@H]1CC[C@H]2[C@@H]3[C@@H](O)C[C@@H]4C[C@H](O)CC[C@]4(C)[C@H]3CC[C@]12C [Ursodeoxycholic acid] |  | + (Mean uptake of bile acids “+” for values below 500) | 
13 | myr-preS1: 2–48 N-terminal amino acids of the myristoylated preS1 domain of the HBV/HDV large envelope protein (GQNLSTSNPLGFFPDHQLDPAFRANTANPDWDFNPNKDTWPDANKVG; N-terminal myristoyl on Gly2) |  |  | pIC50 (NTCP [2]; read-out: IC50 for inhibition of [3H]DHEAS transport via NTCP, 200 nM DHEAS): 6.78; pIC50 (NTCP [2]; read-out: IC50 for inhibition of [3H]TC transport via NTCP, 200 nM TC): 6.74; pIC50 (NTCP [2]; read-out: IC50 for inhibition of [3H]TLC transport via NTCP, 200 nM TLC): 6.50
